Assay results from PMC12998938, “Neutrophil store-operated Ca^2+ entry: A correctable biomarker of cystic fibrosis lung disease progression” (Journal of cystic fibrosis : official journal of the …, 2025).

How the values were obtained:
[1] = system: ER Ca2+ store release in non-CF neutrophils; experiment: Fluo-4 ER Ca2+ release, non-CF neutrophils; type: cell-based, human; conditions: 3 h pre-treatment, 1 μM thapsigargin, no extracellular Ca2+, 2 donors in triplicate
Method: (§1) Isolated neutrophils were incubated with peptide or vehicle control for 3 h. For the final hour of treatment, cells were loaded with Fluo-4 direct (Thermofisher) for 45 min at 37°C and 15 min at room temperature as described.
Fig. 3. ELD607 inhibits SOCE in non-CF and CF neutrophils. (A) and (B) Mean changes in fluo-4 fluorescence as a marker of cytoplasmic Ca^2+ levels in non-CF and CF neutrophils respectively before and after stimulation with 1 μM thapsigargin (Tg). Before stimulation, neutrophils were exposed to vehicle (0.1% DMSO in PBS), 10 μM ELD607 or scrambled peptide (control) for 3 h. N = 10 non-CF and 21 CF donors. Stats show ELD607 vs vehicle or scrambled peptide based on color. […] Neutrophils were stimulated with thapsigargin (1 μM) in the absence of extracellular Ca^2+ to allow the release of Ca^2+ stores to be measured. Extracellular Ca^2+ was then returned so that extracellular Ca^2+ influx could be measured. (C) Mean fold change in Fluo-4 fluorescence during ER store release in non-CF and CF neutrophils. […] (E) Mean fold change in fluo-4 fluorescence during Ca^2+ influx in non-CF and CF neutrophils. […]
SOCE has 2 phases: release of Ca^2+ from ER stores and Ca^2+ influx from the extracellular space via Ca^2+ channels such as Orai1. […] Once the stores had emptied, extracellular Ca^2+ was reintroduced and Ca^2+ influx was measured (Fig. 3C–F). […]

[2] = system: Ca2+ influx in non-CF neutrophils; experiment: Fluo-4 Ca2+ influx across the plasma membrane, non-CF neutrophils; type: cell-based, human
Method: as §1
(§2) Fig. 3. ELD607 inhibits SOCE in non-CF and CF neutrophils. (A) and (B) Mean changes in fluo-4 fluorescence as a marker of cytoplasmic Ca^2+ levels in non-CF and CF neutrophils respectively before and after stimulation with 1 μM thapsigargin (Tg). Before stimulation, neutrophils were exposed to vehicle (0.1% DMSO in PBS), 10 μM ELD607 or scrambled peptide (control) for 3 h. N = 10 non-CF and 21 CF donors. Stats show ELD607 vs vehicle or scrambled peptide based on color. (C-F) Isolation of ER Ca^2+ release vs Ca^2+ influx across the plasma membrane in non-CF and CF Neutrophils. Neutrophils were stimulated with thapsigargin (1 μM) in the absence of extracellular Ca^2+ to allow the release of Ca^2+ stores to be measured. Extracellular Ca^2+ was then returned so that extracellular Ca^2+ influx could be measured. (C) Mean fold change in Fluo-4 fluorescence during ER store release in non-CF and CF neutrophils. […] (E) Mean fold change in fluo-4 fluorescence during Ca^2+ influx in non-CF and CF neutrophils. […]
(§3) SOCE has 2 phases: release of Ca^2+ from ER stores and Ca^2+ influx from the extracellular space via Ca^2+ channels such as Orai1. […] Once the stores had emptied, extracellular Ca^2+ was reintroduced and Ca^2+ influx was measured (Fig. 3C–F).
(§4) Fluo-4 Ca^2+ assays. […] For global Ca^2+ measurements, baseline fluorescent readings were made for 2 min (1 read every 30 s) using a Tecan Infinite M1000 plate reader (ex 494 em 516 nm, bandwidth 5 nm) before thapsigargin (Sigma-Aldrich) was added and the change in emission was recorded for 10 min (1 read every 30 s). […] Baseline fluo-4 fluorescence was read for 2 min before cell were stimulated with thapsigargin (Tocris). Reads continued for ~5 min before 1.2 mM Ca^2+ was added to the extracellular solution and SOCE was measured for ~10 mins. For analysis, all fluo-4 fluorescence reads are normalized to baseline.

[3] = system: Ca2+ influx in CF neutrophils; experiment: Fluo-4 Ca2+ influx across the plasma membrane, CF neutrophils; type: cell-based, human
Method: as §1, §2, §3, §4

[4] = system: HEK293T Orai1, Orai2 and Orai3 triple knockout cells; experiment: SOCE in Orai1/2/3 triple knockout HEK293T cells; type: cell-based; conditions: thapsigargin, 7-9 replicates, 3 experiments
From the text: We hypothesized that inhibiting SOCE in CF neutrophils may reduce the secretion of neutrophil elastase and other proteins associated with CF lung disease. To validate ELD607’s specificity for Orai1 over Orai2 and Orai3, we first evaluated ELD607 function in HEK293T cells that had Orai1, Orai2 and Orai3 stably knocked out. […] Next we evaluated ELD607’s ability to inhibit SOCE in non-CF and CF neutrophils.
Supplemental figure 3. […] Dose responses of thapsigargin-induced changes in cytoplasmic Ca^2+ concentrations. These studies were performed in HEK293T where Orai1, Orai2 and Orai3 had been stably knocked down (triple knockout cells, TKO) or in TKO cells that were transiently transfected with Orai1, Orai2 or Orai3 as indicated. All data are from 7-9 replicates per data point from 3 separate experiments.

[5] = system: Staphylococcus aureus-infected mice; conditions: ref [21], cited from earlier work
[6] = system: MRSA-infected mice; design: method as in earlier work; conditions: reduced lung injury, increased survival, ref [21]; cited from earlier work
[7] = system: neutrophil elastase; conditions: cited from earlier work

VHDIVNMLIRG [ELD607]
inhibition of ER Ca2+ release [1]: little effect
attenuation of Ca2+ influx ([2]; non-CF neutrophils (Fig. 3)): markedly attenuated Ca^2+ influx
IC50 ([2]; non-CF, 3 h pre-treatment, 1 μM thapsigargin, extracellular Ca2+ (1.2 mM) returned, 2 donors in triplicate, vs CF p<0.0001): 340 nM
Ca2+ influx relative to non-CF levels ([3]; CF neutrophils, absolute terms): restored Ca^2+ from influx CF neutrophils to non-CF levels
IC50 ([3]; CF, 3 h pre-treatment, 1 μM thapsigargin, extracellular Ca2+ (1.2 mM) returned, 3 donors in triplicate, vs non-CF p<0.0001): 493 nM
effect on SOCE [4]: no effect on SOCE
neutrophilia and neutrophil elastase release ([5]; S. aureus-infected mice): reduces neutrophilia and neutrophil elastase release
neutrophil influx into the lungs ([5]; mice, S. aureus, reduced lung injury, increased survival): reduces neutrophil influx into the lungs of mice
neutrophil influx into the lungs [6]: reduces neutrophil influx into the lungs of mice
stability in neutrophil elastase [7]: protease-resistant and stable in CF patient-derived neutrophil elastase
